From US6197761A, “17β-2-oxo-tetrahydrofuranyl)-carbothioic acid ester, -carboxylic acid ester and -carboxylic acid amide androstane derivatives” (Glaxo Wellcome Inc., priority 1995, dated 2001) come the findings set out here.

pEC50: −log10 of the molar value. Bounds are passed on as bounds.

The subject of one series is rat ear oedema. The series is described as follows: Anti-inflammatory activity: inhibition of rat ear oedema (croton oil). It counts as in vivo. To be noted: topical to ear with 5% croton oil in acetone, male rats, 6 hours. As to the method: (i) Anti-inflammatory Activity--Inhibition of rat ear oedema
The test compounds are dissolved in acetone and 40 ul containing 5% croton oil is applied to the inner surface of each of the ears of 60-80 g male rats. Animals are killed 6 hours later and the ears are removed. Standard size (0.5 cm diameter) discs are punched out and the discs weighed. Mean weight of the ear discs is calculated and from this percentage inhibition of ear inflammation in relation to croton oil alone treated ears are calculated.

For series [1], the target named is T1, Human Glucocorticoid Receptor (Homo sapiens, UniProt P04150).
T1 construct: endogenous in cells; host or cells: HeLa cells (stably transfected with the sPAP reporter under the MMTV LTR)
T1 sequence (P04150 1-777): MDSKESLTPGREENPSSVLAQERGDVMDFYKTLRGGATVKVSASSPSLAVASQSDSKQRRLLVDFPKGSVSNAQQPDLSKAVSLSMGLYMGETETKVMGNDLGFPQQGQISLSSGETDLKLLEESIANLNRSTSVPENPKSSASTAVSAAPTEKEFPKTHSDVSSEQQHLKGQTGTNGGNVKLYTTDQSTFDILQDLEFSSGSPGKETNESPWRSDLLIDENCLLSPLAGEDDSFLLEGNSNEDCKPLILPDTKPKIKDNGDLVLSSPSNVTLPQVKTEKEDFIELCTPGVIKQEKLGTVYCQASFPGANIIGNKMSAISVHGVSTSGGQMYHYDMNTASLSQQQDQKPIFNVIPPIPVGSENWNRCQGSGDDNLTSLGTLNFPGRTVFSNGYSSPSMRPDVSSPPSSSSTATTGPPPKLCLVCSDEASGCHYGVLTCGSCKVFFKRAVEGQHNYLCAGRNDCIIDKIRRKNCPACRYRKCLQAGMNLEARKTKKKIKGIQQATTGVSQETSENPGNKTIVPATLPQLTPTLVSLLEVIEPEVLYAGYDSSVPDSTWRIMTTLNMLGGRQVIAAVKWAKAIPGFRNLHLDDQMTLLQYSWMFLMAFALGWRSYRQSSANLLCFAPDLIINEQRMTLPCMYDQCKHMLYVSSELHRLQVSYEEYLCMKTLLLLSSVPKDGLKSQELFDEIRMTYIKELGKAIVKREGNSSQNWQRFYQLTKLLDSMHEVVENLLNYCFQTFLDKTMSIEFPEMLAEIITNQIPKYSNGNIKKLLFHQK
The series is described as follows: functional in vitro glucocorticoid assay, sPAP reporter under MMTV LTR in transfected Hela cells. It counts as cell-based. The note with it: sPAP transcription in transfected Hela cells, 72 hours incubation. The source says: The functional assay used was a modification of the method described by T. S Berger et al, of J. of Steroid Biochem. Molec. Biol. 1992, 41 (3-8), 733-738, "Interaction of Glucocorticoid analogues with the Human Glucocorticoid Receptor".
Thus, Hela cells were stably transfected with a detectable reporter gene (secreted placental alkaline phosphatase, sPAP) under the control of a glucocorticoid response promoter (the LTR of the mouse mammary tumour virus, MMTV).
Various concentrations of standard (dexamethasone) or compounds of the invention were incubated with transfected Hela cells for 72 hours. At the end of the incubation, substrate ([…]) for sPAP was added and the product measured by a spectrophotometric method. Increased absorbance reflected increased sPAP transcription and concentration-response lines were constructed such that EC50 -values could be estimated.

The nature of series [2]: Hydrolysis in Blood (stability in human plasma). It counts as in vitro ADME.
Series [3] has as its system Adrenocorticotrophic hormone (ACTH). The series is described as follows: Systemic effects: ACTH suppression in adrenalectomised rats. It counts as in vivo, rat. To be noted: single intra-tracheal, adrenalectomised male CD rats, plasma ACTH at 4 h. On the procedure: (ii) Systemic effects--ACTH suppression in adrenalectomised rats
Male CD rats (90-120 g) were adrenalectomised under Isoflurane anaesthesia and drinking water was supplemented with 0.9% saline. Four days later the animals receive a single intra-tracheal dose (under Isoflurane anaesthesia) of compound suspended in saline (containing 0.2% Tween-80, 0.2 ml) at 10 am. After 4 h animals are sacrificed by administration of Euthetal and blood samples are taken by intra-cardiac puncture and collected into heparinised tubes. The samples are centrifuged (20 minutes at 1000 RPM at 4 deg C.), the plasma is collected and assayed by Radioimmunoassay (RIA) for Adrenocorticotrophic hormone (ACTH) using a DPC double antibody RIA kit. Intact and vehicle control groups were included in each experiment in order to account for diurnal variation in ACTH and effects of vehicle. Results are calculated with respect to the RIA standard curve and expressed as ACTH pg/ml plasma, allowing percentage reduction in ACTH to be calculated.

Regarding `CC1(C)O[C@@H]2C[C@H]3[C@@H]4C[C@H](F)C5=CC(=O)C=C[C@]5(C)[C@@]4(F)[C@@H](O)C[C@]3(C)[C@]2(C(=O)N[C@@H]2CCOC2=O)O1` (single isomer, unassigned) [Example 16 Isomer B, 6α,9α-Difluoro-11β-hydroxy-16α,17α-isopropylidenedioxy-3-oxo-androsta-1,4-diene-17β-carboxylic acid N-(2-oxo-tetrahydro-furan-3-yl) amide], the “% Inhibition (ear inflammation)” value in the series with rat ear oedema (dose 10 μg) stood at 42%.

Turning to `CCC[C@@H]1O[C@@H]2C[C@H]3[C@@H]4C[C@H](F)C5=CC(=O)CC[C@]5(C)[C@@]4(F)[C@@H](O)C[C@]3(C)[C@]2(C(=O)SC2CCOC2=O)O1` (single isomer, unassigned) [Example 19 Isomer A, 16α,17α-(R-Butylidenedioxy)-6α,9α-difluoro-11β-hydroxy-3-oxo-androst-4-ene-17β-carbothioic acid S-(2-oxo-tetrahydro-furan-3-yl) ester], the “% Inhibition (ear inflammation)” value in the series with rat ear oedema (dose 100 μg) turned out to be 54%.

With `CCC[C@@H]1O[C@@H]2C[C@H]3[C@@H]4C[C@H](F)C5=CC(=O)CC[C@]5(C)[C@@]4(F)[C@@H](O)C[C@]3(C)[C@]2(C(=O)SC2CCOC2=O)O1` (single isomer, unassigned) [Example 19 Isomer B, 16α,17α-(R-Butylidenedioxy)-6α,9α-difluoro-11β-hydroxy-3-oxo-androst-4-ene-17β-carbothioic acid S-(2-oxo-tetrahydro-furan-3-yl) ester], in the series with rat ear oedema (dose 100 μg), the “% Inhibition (ear inflammation)” value turned out to be 43%.

As for `CCC[C@@H]1O[C@@H]2C[C@H]3[C@@H]4C[C@H](F)C5=CC(=O)CC[C@]5(C)[C@@]4(F)[C@@H](O)C[C@]3(C)[C@]2(C(=O)NC2CCOC2=O)O1` (single isomer, unassigned) [Example 22, 16α,17α-(R-Butylidenedioxy)-6α,9α-difluoro-11β-hydroxy-3-oxo-androst-4-ene-17β-carboxylic acid N-(2-oxo-tetrahydro-furan-3-yl) amide], the pEC50 (as a rule, the negative decadic logarithm of the EC50, by convention in mol/L) in series [1] was greater than 6.40. Moreover, in series [2], the half-life (usually the time needed for the level to fall by half in the phase considered) is less than 3 h.

Consider `CCC(=O)O[C@]1(C(=O)S[C@H]2CCOC2=O)[C@H](C)C[C@H]2[C@@H]3C[C@H](F)C4=CC(=O)C=C[C@]4(C)[C@@]3(F)[C@@H](O)C[C@@]21C` [Example 2, 6α,9α-Difluoro-11β-hydroxy-16α-methyl-3-oxo-17α-propionyloxy-androsta-1,4-diene-17β-carbothioic acid S-(2-oxo-tetrahydro-furan-3S-yl)-ester], for which the “% Inhibition (ear inflammation)” value with rat ear oedema (dose 100 μg) is reported as 42%. Further, the “% Reduction in ACTH” value in series [3] (dose 500 μg) amounted to 0%.

Molecule `CC1(C)O[C@@H]2C[C@H]3[C@@H]4C[C@H](F)C5=CC(=O)C=C[C@]5(C)[C@@]4(F)[C@@H](O)C[C@]3(C)[C@]2(C(=O)N[C@H]2CCOC2=O)O1` [Example 15, 6α,9α-Difluoro-11β-hydroxy-16α,17α-isopropylidenedioxy-3-oxo-androsta-1,4-diene-17β-carboxylic acid N-(2-oxo-tetrahydro-furan-3S-yl) amide] had a pEC50 in series [1] greater than 6.40. This molecule also yielded a half-life in series [2] of less than 3 h.

In series [1], `CC1(C)O[C@@H]2C[C@H]3[C@@H]4C[C@H](F)C5=CC(=O)C=C[C@]5(C)[C@@]4(F)[C@@H](O)C[C@]3(C)[C@]2(C(=O)NC2CCOC2=O)O1` (stereo partly drawn) [Example 16, 6α,9α-Difluoro-11β-hydroxy-16α,17α-isopropylidenedioxy-3-oxo-androsta-1,4-diene-17β-carboxylic acid N-(2-oxo-tetrahydro-furan-3-yl) amide] gave a pEC50 greater than 6.40. In series [2], the half-life was less than 3 h.

Molecule `CC1(C)O[C@@H]2C[C@H]3[C@@H]4C[C@H](F)C5=CC(=O)C=C[C@]5(C)[C@@]4(F)[C@@H](O)C[C@]3(C)[C@]2(C(=O)N[C@@H]2COC(=O)C2)O1` [Example 23, 6α,9α-Difluoro-11β-hydroxy-16α,17α-isopropylidenedioxy-3-oxo-androsta-1,4-diene-17β-carboxylic acid N-(2-oxo-tetrahydro-furan-4S-yl) amide] showed a pEC50 in series [1] greater than 6.40. The same molecule returned a half-life in series [2] of less than 3 h.

In series [1], `CC1(C)O[C@@H]2C[C@H]3[C@@H]4C[C@H](F)C5=CC(=O)C=C[C@]5(C)[C@@]4(F)[C@@H](O)C[C@]3(C)[C@]2(C(=O)N[C@H]2COC(=O)C2)O1` [Example 24, 6α,9α-Difluoro-11β-hydroxy-16α,17α-isopropylidenedioxy-3-oxo-androsta-1,4-diene-17β-carboxylic acid N-(2-oxo-tetrahydro-furan-4R-yl) amide] gave a pEC50 greater than 6.40.

Take `CC1(C)O[C@@H]2C[C@H]3[C@@H]4C[C@H](F)C5=CC(=O)C=C[C@]5(C)[C@@]4(F)[C@@H](O)C[C@]3(C)[C@]2(C(=O)CO)O1` [Fluocinolone acetonide]: the “% Reduction in ACTH” value in series [3] (dose 1 μg) was 49%; in series [3] (dose 5 μg), 84%.
